According to patent US8501953B2, “PKM2 modulators for use in the treatment of cancer” (Agios Pharmaceuticals, Inc, priority 2009, dated 2013):

The compounds below were run against PKM2 (Homo sapiens, UniProt P14618) (assay: PKM2 Assay (activation; LDH-coupled, NADH absorbance at 340 nm)). Settings: PKM2 50 ng/well, ADP 0.7 mM, PEP 0.15 mM, no FBP in Reaction Mix.
Type: biochemical
Description: • PKM2 stock enzyme solution was diluted in Reaction Buffer • 2 μL of compound was added into each well first, and then 180 μL of the Reaction Mix was added. • Reaction mixture with compound (without ADP) were incubated for 30 minutes at 4° C. • Plates were re-equilibrated to room temperature prior to adding 20 μL ADP to initiate the reaction. • Reaction progress was measured as changes in absorbance at 340 nm wavelength at room temperature (25° C.) Reaction Mix: PKM2 (50 ng/well), ADP (0.7 mM), PEP (0.15 mM), NADH (180 μM), LDH (2 units) in Reaction Buffer Reaction Buffer: 100 mM KCl, 50 mM Tris pH 7.5, 5 mM MgCl2, 1 mM DTT, 0.03% BSA.

Sequence of PKM2 (P14618 whole entry): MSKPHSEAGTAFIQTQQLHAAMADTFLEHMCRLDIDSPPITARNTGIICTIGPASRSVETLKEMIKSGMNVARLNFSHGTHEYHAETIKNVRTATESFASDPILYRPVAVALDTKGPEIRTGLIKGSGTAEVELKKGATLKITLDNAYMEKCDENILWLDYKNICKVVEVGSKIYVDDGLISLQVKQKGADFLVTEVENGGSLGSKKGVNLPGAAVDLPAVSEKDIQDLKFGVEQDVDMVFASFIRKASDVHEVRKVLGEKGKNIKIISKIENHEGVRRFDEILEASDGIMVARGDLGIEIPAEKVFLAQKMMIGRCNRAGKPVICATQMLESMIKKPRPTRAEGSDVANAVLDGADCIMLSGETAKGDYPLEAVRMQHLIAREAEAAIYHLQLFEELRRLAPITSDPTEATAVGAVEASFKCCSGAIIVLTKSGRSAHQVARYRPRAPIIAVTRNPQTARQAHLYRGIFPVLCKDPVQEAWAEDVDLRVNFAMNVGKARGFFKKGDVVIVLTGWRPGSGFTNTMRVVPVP

AC50 [µM] | SMILES
< 1 | COCCn1c(=O)oc2cc(S(=O)(=O)Nc3ccc(F)c(C)c3)cc(C)c21
< 1 | Cn1c(=O)sc2cc(S(=O)(=O)Nc3ccc(F)cc3)ccc21
10 to 50 | Cn1c(=O)sc2ccc(NS(=O)(=O)c3ccccc3)cc21
10 to 50 | Cc1cc2oc(=O)n(C)c2cc1NS(=O)(=O)c1cc(Cl)ccc1Cl
< 1 | COc1ccc(Cl)cc1S(=O)(=O)N1CCN(S(=O)(=O)c2cc3c(cc2F)oc(=O)n3C)CC1
< 1 | Cc1ccc(NS(=O)(=O)c2ccc3c(c2)oc(=O)n3C)cc1C
10 to 50 | COc1cccc(F)c1S(=O)(=O)N(C)c1ccc2sc(=O)n(C)c2c1
1 to 10 | Cn1c(=O)sc2cc(S(=O)(=O)Nc3cccc4ccccc34)ccc21
10 to 50 | COc1ccc(Cl)cc1S(=O)(=O)Nc1ccc2sc(=O)n(C)c2c1
1 to 10 | Cc1cc(NS(=O)(=O)c2cc(CN3CCOCC3)c3c(c2)oc(=O)n3C)ccc1F
1 to 10 | COCCn1c(=O)oc2cc(C)c(S(=O)(=O)Nc3ccc(F)c(Cl)c3)cc21
1 to 10 | Cn1c(=O)oc2cc(S(=O)(=O)Nc3ccc(F)cc3)ccc21
> 100 | Cc1cc2oc(=O)n(C)c2cc1NS(=O)(=O)c1c(F)cccc1F
< 1 | COc1ccc(S(=O)(=O)N2CCN(S(=O)(=O)c3ccc4c(c3)sc(=O)n4C)CC2)cc1
1 to 10 | Cc1ccc(COC(=O)N2CCN(S(=O)(=O)c3cc4oc(=O)n(C)c4cc3C)CC2)cc1
> 100 | Cc1cc2oc(=O)n(C)c2cc1S(=O)(=O)Nc1c(F)cccc1F
< 1 | Cn1c(=O)sc2cc(S(=O)(=O)Nc3ccc(F)c(Cl)c3)ccc21
1 to 10 | Cn1c(=O)sc2cc(S(=O)(=O)Nc3ccc4ncccc4c3)ccc21
< 1 | Cn1c(=O)oc2cc(S(=O)(=O)Nc3ccc(F)c(C(F)(F)F)c3)ccc21
1 to 10 | CCC(C)n1c(=O)sc2ccc(NS(=O)(=O)c3cc(Cl)ccc3OC)cc21 (centres unmarked)
1 to 10 | Cn1c(=O)oc2cc(S(=O)(=O)Nc3ccc(OC(F)(F)F)c(Br)c3)ccc21
1 to 10 | Cn1c(=O)oc2cc(S(=O)(=O)Nc3ccc(Cl)c(Cl)c3)ccc21
< 1 | Cc1cc(C)cc(NS(=O)(=O)c2cc3oc(=O)n(C)c3cc2C)c1
1 to 10 | Cc1cc2c(cc1S(=O)(=O)N1CCCN(c3ccc(C(F)(F)F)cn3)CC1)oc(=O)n2C
1 to 10 | Cn1c(=O)sc2cc(S(=O)(=O)Nc3cccc4ncccc34)ccc21
1 to 10 | Cn1c(=O)oc2cc(S(=O)(=O)Nc3ccccc3)ccc21

AC50 [µM] | SMILES
1 to 10 | CCn1c(=O)oc2cc(S(=O)(=O)Nc3ccc(F)cc3)ccc21
10 to 50 | CCn1c(=O)oc2cc(C)c(S(=O)(=O)Nc3cc(Cl)ccc3OC)cc21
10 to 50 | COc1ccc(Cl)cc1S(=O)(=O)Nc1ccc2oc(=O)[nH]c2c1
> 100 | COc1ccc(S(=O)(=O)Nc2cc3[nH]c(=O)oc3cc2Cl)cc1OC
1 to 10 | Cc1cc(C)cc(NS(=O)(=O)c2ccc3c(c2)oc(=O)n3Cc2ccccc2)c1
< 1 | Cn1c(=O)oc2cc(S(=O)(=O)Nc3ccc(F)c(F)c3)ccc21
10 to 50 | Cc1cc2oc(=O)n(C)c2cc1NS(=O)(=O)c1cccc(Cl)c1
10 to 50 | Cc1cc2sc(=O)sc2cc1S(=O)(=O)Nc1ccccc1F
1 to 10 | Cn1c(=O)oc2cc(F)c(S(=O)(=O)Nc3ccccc3)cc21 [drawing 242]
1 to 10 | COc1ccc(C)cc1S(=O)(=O)Nc1ccc2sc(=O)n(C)c2c1
< 1 | Cn1c(=O)oc2cc(F)c(S(=O)(=O)Nc3ccccc3)cc21 [drawing 56]
1 to 10 | Cn1c(=O)oc2cc(S(=O)(=O)Nc3ccc4ccccc4c3)ccc21
1 to 10 | COc1ccc(Cl)cc1S(=O)(=O)Nc1cc2c(cc1Cl)oc(=O)n2C
1 to 10 | CCn1c(=O)oc2cc(S(=O)(=O)Nc3ccccc3Cl)ccc21
10 to 50 | Cn1c(=O)oc2cc(Cl)c(S(=O)(=O)Nc3ccc(Cl)cc3)cc21
10 to 50 | Cc1cc2c(cc1NS(=O)(=O)c1cccs1)oc(=O)n2C
> 100 | Cc1cc(NS(=O)(=O)c2cc(CN(C)C)c3c(c2)oc(=O)n3C)ccc1F
< 1 | Cc1cc(NS(=O)(=O)c2cc3c(cc2C)oc(=O)n3C)ccc1Cl
1 to 10 | CCn1c(=O)sc2ccc(NS(=O)(=O)c3cc(C)ccc3OC)cc21
10 to 50 | COc1ccc(Cl)cc1NS(=O)(=O)c1ccc2sc(=O)sc2c1
1 to 10 | Cn1c(=O)oc2cc(Cl)c(S(=O)(=O)Nc3ccccc3F)cc21
< 1 | Cn1c(=O)oc2cc(S(=O)(=O)Nc3cc(F)cc(Cl)c3)ccc21
1 to 10 | Cc1cc2c(cc1S(=O)(=O)Nc1ccccc1Cl)oc(=O)n2C
10 to 50 | CCn1c(=O)oc2cc(S(=O)(=O)Nc3ccc(F)cc3)c(C)cc21
< 1 | Cn1c(=O)oc2cc(S(=O)(=O)Nc3ccc(F)c(Cl)c3)ccc21
1 to 10 | Cn1c(=O)oc2cc(S(=O)(=O)Nc3cc(F)cc(F)c3)ccc21

AC50 [µM] | SMILES
1 to 10 | COc1ccc(Cl)cc1NS(=O)(=O)c1cc2c(cc1C)oc(=O)n2C
1 to 10 | Cc1cc2oc(=O)n(C)c2cc1S(=O)(=O)Nc1cc(F)cc(Cl)c1
1 to 10 | Cn1c(=O)sc2cc(S(=O)(=O)N3CCCN(S(=O)(=O)c4ccccc4)CC3)ccc21
< 1 | Cc1ccc(NS(=O)(=O)c2cc3c(cc2C)oc(=O)n3C)cc1C
< 1 | Cc1cc2oc(=O)n(C)c2cc1S(=O)(=O)Nc1ccc(Cl)cc1
1 to 10 | Cc1cc2c(cc1S(=O)(=O)N1CCN(Cc3ccccc3)CC1)oc(=O)n2C
< 1 | Cn1c(=O)oc2cc(S(=O)(=O)Nc3cc(Cl)cc(Cl)c3)ccc21
1 to 10 | Cn1c(=O)oc2cc(F)c(S(=O)(=O)Nc3ccc(F)cc3)cc21
1 to 10 | Cn1c(=O)oc2cc(S(=O)(=O)Nc3ccc(Cl)c(F)c3)ccc21
< 1 | Cc1cc(NS(=O)(=O)c2ccc3c(c2)sc(=O)n3C)ccc1F
1 to 10 | Cn1c(=O)oc2cc(S(=O)(=O)Nc3cccc(C(F)(F)F)c3)ccc21
1 to 10 | Cn1c(=O)sc2ccc(NS(=O)(=O)c3c(F)cccc3F)cc21
1 to 10 | COc1ccc(S(=O)(=O)N2CCCN(S(=O)(=O)c3ccc4c(c3)sc(=O)n4C)CC2)cc1
1 to 10 | Cc1cc2oc(=O)n(C)c2cc1S(=O)(=O)Nc1ccc(OC(F)(F)F)c(Cl)c1
1 to 10 | Cc1cc2oc(=O)n(C)c2cc1S(=O)(=O)Nc1ccc(Cl)c(C(F)(F)F)c1
1 to 10 | Cc1cc2c(cc1S(=O)(=O)N1CCN(S(=O)(=O)c3c(F)cccc3F)CC1)oc(=O)n2C
< 1 | Cc1cc2oc(=O)n(C)c2cc1S(=O)(=O)Nc1ccc(F)cc1
1 to 10 | Cn1c(=O)oc2cc(S(=O)(=O)N3CCN(S(=O)(=O)c4c(F)cccc4F)CC3)ccc21
10 to 50 | CC(=O)c1ccc(S(=O)(=O)Nc2cc3c(cc2C)oc(=O)n3C)cc1
1 to 10 | CCn1c(=O)sc2ccc(NS(=O)(=O)c3cc(Cl)ccc3OC)cc21
1 to 10 | Cn1c(=O)oc2cc(Cl)c(S(=O)(=O)Nc3ccccc3Cl)cc21
< 1 | COc1ccc(Cl)cc1S(=O)(=O)N1CCCN(S(=O)(=O)c2ccc3c(c2)sc(=O)n3C)CC1
10 to 50 | Cc1cc2oc(=O)n(C)c2cc1NS(=O)(=O)c1ccc(F)cc1
< 1 | Cn1c(=O)oc2cc(S(=O)(=O)N3CCN(S(=O)(=O)c4ccc5ccccc5c4)CC3)ccc21
1 to 10 | COc1ccc(Cl)cc1NS(=O)(=O)c1ccc2c(c1)oc(=O)n2C
10 to 50 | Cn1c(=O)sc2cc(NS(=O)(=O)c3ccc(F)cc3)ccc21

AC50 [µM] | SMILES
> 100 | Cn1c(=O)oc2cc(F)c(S(=O)(=O)Nc3c(F)cccc3F)cc21
1 to 10 | Cn1c(=O)oc2cc(S(=O)(=O)Nc3c(F)cccc3F)ccc21
1 to 10 | COc1ccc(Cl)cc1NS(=O)(=O)c1cc2c(cc1Cl)oc(=O)n2C
1 to 10 | Cn1c(=O)oc2cc(S(=O)(=O)Nc3ccc4c(c3)OCCO4)ccc21
1 to 10 | Cn1c(=O)oc2cc(F)c(S(=O)(=O)Nc3ccc(Cl)cc3)cc21
> 100 | COc1ccc(Cl)cc1S(=O)(=O)Nc1ccc(NS(=O)(=O)c2cc3c(cc2C)oc(=O)n3C)cc1
10 to 50 | CCn1c(=O)oc2cc(C)c(S(=O)(=O)Nc3ccccc3Cl)cc21
< 1 | Cn1c(=O)oc2cc(F)c(S(=O)(=O)N3CCN(S(=O)(=O)c4ccc5c(c4)OCCO5)CC3)cc21
< 1 | CCc1cccc(NS(=O)(=O)c2cc3c(cc2C)oc(=O)n3C)c1
< 1 | CCc1cccc(NS(=O)(=O)c2ccc3c(c2)oc(=O)n3C)c1
> 100 | Cc1cc2oc(=O)n(C)c2cc1S(=O)(=O)N1CCN(C(=O)Cc2ccc(C(F)(F)F)cc2)CC1
< 1 | Cc1cc(C)cc(NS(=O)(=O)c2cc3sc(=O)n(C)c3cc2Cl)c1
1 to 10 | CN(Cc1ccccc1)S(=O)(=O)c1ccc2c(c1)oc(=O)n2C
1 to 10 | CCn1c(=O)oc2cc(Cl)c(S(=O)(=O)Nc3ccc(Cl)cc3)cc21
10 to 50 | Cc1cc2sc(=O)sc2cc1S(=O)(=O)NC1CCCCC1
1 to 10 | Cn1c(=O)oc2cc(S(=O)(=O)Nc3ccc(Cl)cc3)ccc21
1 to 10 | Cc1cc2c(cc1S(=O)(=O)Nc1ccc(F)cc1)oc(=O)n2C
10 to 50 | O=c1sc2ccc(S(=O)(=O)Nc3ccc(F)cc3)cc2s1
< 1 | Cn1c(=O)sc2cc(S(=O)(=O)N3CCN(S(=O)(=O)c4c(F)cccc4F)CC3)ccc21
1 to 10 | O=c1oc2cc(S(=O)(=O)Nc3ccc(F)cc3)ccc2n1Cc1ccccc1
< 1 | Cn1c(=O)oc2cc(S(=O)(=O)Nc3cccc(Cl)c3)ccc21
1 to 10 | CCn1c(=O)sc2ccc(NS(=O)(=O)c3c(F)cccc3F)cc21
10 to 50 | O=c1[nH]c2cc(NS(=O)(=O)c3cccc(Cl)c3)ccc2s1
